Format in all cases: cell-based
The subject of data set [1] is DDPAC I17T MAPT mini-gene (exon 10 splicing). Briefly: 4R/3R MAPT mRNA by RT-qPCR, HeLa cells transfected with DDPAC I17T mini-gene. Conditions: ASO 0.5 μM. Here is the method: (§1) RNA Isolation and Real-Time Quantitative PCR (RT-qPCR). HeLa cells were treated as described in the Luciferase Reporter assay to Study Exon 10 Alternative Splicing. LAN5 cells were seeded in 12-well plates at 0.2×10^6 cells per well, treated with compound or ASO, and incubated for 48 h. Compound stocks prepared in DMSO and ASO stocks prepared in water were diluted in growth medium and added to cells. Total RNA was extracted from cells and analyzed via RT-qPCR to determine levels of 3R and 4R tau mRNA. In brief, the cells were washed with 1×DPBS and then lysed in the well using 300 μL of Lysis Buffer provided in a Quick-RNA MiniPrep kit (Zymo Research), which was used to extract total RNA per the manufacturer's protocol including the on-column DNase I digestion. The concentration of total RNA was measured by NanoDrop 2000 (Thermo Fisher Scientific). Only samples with OD260/OD280>1.8 were carried forward for analysis. Reverse transcription (RT) was carried out on 200 ng of total RNA using a qScript cDNA synthesis kit (QuantaBio) in a total volume of 10 μL according to the manufacturer's protocol. An Applied Biosystems QS5 384-well PCR system was used to complete qPCR reactions with Power SYBR Green Master Mix (Life Technologies), 600 nM each primer (Table S3), 20 ng of cDNA (1 μL of the RT reaction), in a total volume of 33 μL. Technical triplicates (10 μL each) were aliquoted into 384-well qPCR plates (Applied biosystems, 4483285). Subsequent qPCR analysis was performed using an Applied Biosystems QS5 384-well PCR system (software v.1.3.0). 4R/3R ratio were analyzed using ΔΔCt method using Equation 2: […]
(§2) where ΔCt 4R or ΔCt 3R is the difference between the Ct values for the 4R or 3R MAPT mRNA and a housekeeping gene (18S rRNA) in total RNA from cells.

The test system of data set [2] is WT I17T MAPT mini-gene (exon 10 splicing). Briefly: 4R/3R MAPT mRNA by RT-qPCR, HeLa cells transfected with WT I17T mini-gene. The conditions noted are these: ASO 0.5 μM. Here is the method: as §1, §2
In data set [3] the test system is MAPT exon 10 splicing in LAN5 cells. Briefly: 4R/3R endogenous MAPT mRNA by RT-qPCR in LAN5 neuroblastoma cells. Conditions: ASO; all cell lines of FIGS. 12A-12C (LAN5, HeLa mini-genes, htau primary neurons). How it is done:
as §1, §2
On the technique in general: Quantitative PCR measures a nucleic acid by following its amplification.

As for “scrambled ASO: scrambled ASO 5′-CTGTCTGACGTTCTTTGT-3′ (SEQ ID NO: 2), negative control (chemistry not given here) [reference compound]”, the “effect on 4R/3R ratio” value in data set [1] and in data set [2] was “not scrambled ASO altered the 4R/3R ratio” throughout. The “PSI10 in all cell lines” value in data set [3] is recorded as “not scrambled ASO was also downregulated”.

Values taken from US20260308158A1, “TARGETING RNAS ASSOCIATED WITH TAUOPATHIES WITH SMALL MOLECULES” (University of Florida Research Foundation, Incorporated, priority 2023, published 2026).
